Source: patent publication US10202339B2, “Therapeutic compounds and compositions” (AGIOS PHARMACEUTICALS, INC., priority 2012, dated 2019)

Key:
IDH2 R140Q = IDH2 R140Q (Homo sapiens (Human), UniProt P48735, R140Q); assay: IDH2 R140Q enzymatic cofactor depletion assay (diaphorase/resazurin); format: biochemical; settings: IDH2 R140Q enzyme, one hour preincubation with compound, one hour reaction; read-out: Enz R140Q
In short: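 Enzyme preincubated with compound 1 h at room temperature, then reaction started with 50 μM NADPH and 6.3 mM α-KG and run 1 h at room temperature. Remaining NADPH measured by diaphorase (36 μg/ml)/resazurin (60 μM) stop mix, fluorescence read at Ex544/Em590 after 1 min.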

IDH1 R132H = IDH1 R132H (Homo sapiens (Human), UniProt O75874, R132H); assay: In vitro assay for IDH1m (R132H) inhibitors, NADPH depletion with resazurin/resorufin detection; format: biochemical; settings: IDH1 R132H enzyme, 50 minutes at room temperature; read-out: IDH R132H IC50
Description: Assays were conducted in a volume of 76 μl assay buffer (150 mM NaCl, 10 mM MgCl2, 20 mM Tris pH 7.5, 0.03% bovine serum albumin) as follows in a standard 384-well plate: To 25 ul of substrate mix (8 uM NADPH, 2 mM aKG), 1 μl of test compound was added in DMSO. The plate was centrifuged briefly, and then 25 μl of enzyme mix was added (0.2 μg/ml IDH1 R132H) followed by a brief centrifugation and shake at 100 RPM. The reaction was incubated for 50 minutes at room temperature, then 25 μl of detection mix (30 μM resazurin, […]) was added and the mixture further incubated for 5 minutes at room temperature. The conversion of resazurin to resorufin was detected by fluorescent spectroscopy at Ex544 Em590 c/o 590.
Representative compounds of formula (I) set forth in Tables 1 and 2 were tested in this assay and the results are set forth below in Table 4.

IDH1 R132H, sequence (O75874 whole entry R132H): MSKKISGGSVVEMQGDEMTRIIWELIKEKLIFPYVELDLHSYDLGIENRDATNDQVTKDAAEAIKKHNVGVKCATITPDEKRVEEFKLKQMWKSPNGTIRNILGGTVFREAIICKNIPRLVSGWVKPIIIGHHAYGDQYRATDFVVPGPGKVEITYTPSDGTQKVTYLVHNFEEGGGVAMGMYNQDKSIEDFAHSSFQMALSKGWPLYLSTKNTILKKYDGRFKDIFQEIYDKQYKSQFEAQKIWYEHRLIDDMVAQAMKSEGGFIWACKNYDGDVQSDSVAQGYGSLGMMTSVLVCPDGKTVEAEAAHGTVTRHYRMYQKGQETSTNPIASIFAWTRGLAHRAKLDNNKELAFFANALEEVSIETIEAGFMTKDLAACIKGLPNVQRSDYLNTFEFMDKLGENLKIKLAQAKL
IDH2 R140Q, sequence (P48735 40-452 R140Q): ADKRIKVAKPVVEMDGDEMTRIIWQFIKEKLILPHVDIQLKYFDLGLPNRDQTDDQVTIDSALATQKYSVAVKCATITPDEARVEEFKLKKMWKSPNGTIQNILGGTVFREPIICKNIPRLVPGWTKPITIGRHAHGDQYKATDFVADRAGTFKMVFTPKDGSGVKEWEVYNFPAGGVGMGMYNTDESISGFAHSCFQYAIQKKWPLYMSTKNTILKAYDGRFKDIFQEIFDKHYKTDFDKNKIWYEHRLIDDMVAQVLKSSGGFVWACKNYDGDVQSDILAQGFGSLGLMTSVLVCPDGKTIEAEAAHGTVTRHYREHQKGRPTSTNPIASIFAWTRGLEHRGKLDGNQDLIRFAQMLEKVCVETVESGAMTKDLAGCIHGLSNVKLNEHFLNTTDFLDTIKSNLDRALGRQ

O=C(Nc1cccc(C(F)(F)F)c1)Nc1cc(S(=O)(=O)NCC(F)(F)F)cnc1NCC1CC1 [Compound 204, 6-((cyclopropylmethyl)amino)-N-(2,2,2-trifluoroethyl)-5-(3-(3-(trifluoromethyl)phenyl)ureido)pyridine-3-sulfonamide]
IC50 (IDH2 R140Q): 1000 to 10000 nM

Cc1ccc(NC(=O)Nc2ccc(Cl)cc2)cc1S(=O)(=O)Nc1ccccc1 [Compound 205]
IC50 (IDH1 R132H): 1 to 10 µM

Cc1ccc(NC(=O)Nc2cccc(C(F)(F)F)c2)cc1S(=O)(=O)Nc1ccccc1 [Compound 206, 2-methyl-N-phenyl-5-(3-(3-(trifluoromethyl)phenyl)ureido)benzenesulfonamide]
IC50 (IDH1 R132H): 1 to 10 µM

Cc1ccc(NC(=O)Nc2ccc(C(F)(F)F)cc2)cc1S(=O)(=O)Nc1ccccc1 [Compound 207, 2-methyl-N-phenyl-5-(3-(4-(trifluoromethyl)phenyl)ureido)benzenesulfonamide]
IC50 (IDH1 R132H): 1 to 10 µM

Cc1ccc(NC(=O)Nc2ccc(OC(F)(F)F)cc2)cc1S(=O)(=O)Nc1ccccc1 [Compound 208]
IC50 (IDH1 R132H): 1 to 10 µM

Cc1ccc(NC(=O)Nc2ccc(F)c(Cl)c2)cc1S(=O)(=O)Nc1ccccc1 [Compound 209]
IC50 (IDH1 R132H): 1 to 10 µM

Cc1cc(C)cc(NC(=O)Nc2ccc(C)c(S(=O)(=O)Nc3ccccc3)c2)c1 [Compound 210]
IC50 (IDH1 R132H): 1 to 10 µM

C#Cc1cccc(NC(=O)Nc2ccc(C)c(S(=O)(=O)Nc3ccccc3)c2)c1 [Compound 211]
IC50 (IDH1 R132H): 1 to 10 µM

Cc1ccc(NC(=O)Nc2cccc(Oc3ccccc3)c2)cc1S(=O)(=O)Nc1ccccc1 [Compound 212]
IC50 (IDH1 R132H): 1 to 10 µM

Cc1ccc(NC(=O)Nc2ccccc2)cc1S(=O)(=O)Nc1ccc(Cl)cc1 [Compound 213]
IC50 (IDH1 R132H): 1 to 10 µM

Cc1ccc(NC(=O)Nc2ccccc2Cl)cc1S(=O)(=O)Nc1ccc(Cl)cc1 [Compound 214]
IC50 (IDH1 R132H): 1 to 10 µM

Cc1ccc(NC(=O)Nc2cccc(Cl)c2)cc1S(=O)(=O)Nc1ccc(Cl)cc1 [Compound 215]
IC50 (IDH1 R132H): 1 to 10 µM

Cc1ccc(NC(=O)Nc2ccccc2Br)cc1S(=O)(=O)Nc1ccc(Cl)cc1 [Compound 216]
IC50 (IDH1 R132H): 1 to 10 µM

Cc1ccc(NC(=O)Nc2ccc(Br)cc2)cc1S(=O)(=O)Nc1ccc(Cl)cc1 [Compound 217]
IC50 (IDH1 R132H): 1 to 10 µM

Cc1ccc(NC(=O)Nc2ccccc2F)cc1S(=O)(=O)Nc1ccc(Cl)cc1 [Compound 218]
IC50 (IDH1 R132H): 1 to 10 µM

Cc1ccc(NC(=O)Nc2ccc(F)cc2)cc1S(=O)(=O)Nc1ccc(Cl)cc1 [Compound 219]
IC50 (IDH1 R132H): 1 to 10 µM

Cc1ccc(NC(=O)Nc2ccc(I)cc2)cc1S(=O)(=O)Nc1ccc(Cl)cc1 [Compound 220]
IC50 (IDH1 R132H): 1 to 10 µM

Cc1ccc(NC(=O)Nc2cccc(C(F)(F)F)c2)cc1S(=O)(=O)Nc1ccc(Cl)cc1 [Compound 221, N-(4-chlorophenyl)-2-methyl-5-(3-(3(trifluoromethyl)phenyl)ureido)benzenesulfonamide]
IC50 (IDH1 R132H): 1 to 10 µM

Cc1ccc(NC(=O)Nc2ccc(C(F)(F)F)cc2)cc1S(=O)(=O)Nc1ccc(Cl)cc1 [Compound 222, N-(4-chlorophenyl)-2-methyl-5-(3-(4-(trifluoromethyl)phenyl)ureido)benzenesulfonamide]
IC50 (IDH1 R132H): 1 to 10 µM

Cc1ccc(NC(=O)Nc2ccccc2OC(F)(F)F)cc1S(=O)(=O)Nc1ccc(Cl)cc1 [Compound 224]
IC50 (IDH1 R132H): 1 to 10 µM

Cc1ccc(NC(=O)Nc2ccc(OC(F)(F)F)cc2)cc1S(=O)(=O)Nc1ccc(Cl)cc1 [Compound 225, N-(4-chlorophenyl)-2-methyl-5-(3-(4-(trifluoromethoxy)phenyl)ureido)benzenesulfonamide]
IC50 (IDH1 R132H): 1 to 10 µM

Cc1ccc(NC(=O)Nc2ccc(Br)cc2Cl)cc1S(=O)(=O)Nc1ccc(Cl)cc1 [Compound 227]
IC50 (IDH1 R132H): 1 to 10 µM

Cc1ccc(NC(=O)Nc2ccc(F)c(Cl)c2)cc1S(=O)(=O)Nc1ccc(Cl)cc1 [Compound 228]
IC50 (IDH1 R132H): 1 to 10 µM

Cc1ccc(NC(=O)Nc2ccc(F)cc2F)cc1S(=O)(=O)Nc1ccc(Cl)cc1 [Compound 229]
IC50 (IDH1 R132H): 1 to 10 µM

Cc1ccc(NC(=O)Nc2ccc(F)c(F)c2)cc1S(=O)(=O)Nc1ccc(Cl)cc1 [Compound 230]
IC50 (IDH1 R132H): 1 to 10 µM

Cc1ccc(NC(=O)Nc2ccc(C(F)(F)F)cc2Cl)cc1S(=O)(=O)Nc1ccc(Cl)cc1 [Compound 231]
IC50 (IDH1 R132H): 1 to 10 µM

Cc1ccc(NC(=O)Nc2ccc(Br)cc2OC(F)(F)F)cc1S(=O)(=O)Nc1ccc(Cl)cc1 [Compound 232]
IC50 (IDH1 R132H): 1 to 10 µM

Cc1ccc(NC(=O)Nc2cc(C(F)(F)F)ccc2F)cc1S(=O)(=O)Nc1ccc(Cl)cc1 [Compound 233]
IC50 (IDH1 R132H): 1 to 10 µM

Cc1ccc(NC(=O)Nc2c(C)cccc2Cl)cc1S(=O)(=O)Nc1ccc(Cl)cc1 [Compound 234]
IC50 (IDH1 R132H): 1 to 10 µM

Cc1ccc(NC(=O)Nc2ccc(C)c(S(=O)(=O)Nc3ccc(Cl)cc3)c2)cc1Cl [Compound 235]
IC50 (IDH1 R132H): 1 to 10 µM

Cc1cc(Cl)ccc1NC(=O)Nc1ccc(C)c(S(=O)(=O)Nc2ccc(Cl)cc2)c1 [Compound 236]
IC50 (IDH1 R132H): 1 to 10 µM

Cc1cc(NC(=O)Nc2ccc(C)c(S(=O)(=O)Nc3ccc(Cl)cc3)c2)ccc1Br [Compound 237]
IC50 (IDH1 R132H): 1 to 10 µM

Cc1cc(Br)ccc1NC(=O)Nc1ccc(C)c(S(=O)(=O)Nc2ccc(Cl)cc2)c1 [Compound 238]
IC50 (IDH1 R132H): 1 to 10 µM

O=C(Nc1cccc(S(=O)(=O)NCC(F)(F)F)c1)Nc1cc(C(F)(F)F)ccn1 [Compound 337, N-(2,2,2-trifluoroethyl)-3-(3-(4-(trifluoromethyl)pyridin-2-yl)ureido)benzenesulfonamide]
IC50 (IDH2 R140Q): 100 to 1000 nM

C#Cc1ccc(S(=O)(=O)NCC(F)(F)F)cc1NC(=O)Nc1cccc(C(F)(F)F)c1 [Compound 338, 4-ethynyl-N-(2,2,2-trifluoroethyl)-3-(3-(3-(trifluoromethyl)phenyl)ureido)benzenesulfonamide]
IC50 (IDH2 R140Q): 100 to 1000 nM

CCc1ccc(S(=O)(=O)NCC(F)(F)F)cc1NC(=O)Nc1cccc(C(F)(F)F)c1 [Compound 339, 4-ethyl-N-(2,2,2-trifluoroethyl)-3-(3-(3-(trifluoromethyl)phenyl)ureido)benzenesulfonamide]
IC50 (IDH2 R140Q): 100 to 1000 nM

O=C(Nc1cccc(C(F)(F)F)c1)Nc1cc(S(=O)(=O)Nc2ccccc2)ccc1Nc1ccccc1 [Compound 340, N-phenyl-4-(phenylamino)-3-(3-(3-(trifluoromethyl)phenyl)ureido)benzenesulfonamide]
IC50 (IDH2 R140Q): 1000 to 10000 nM

CN(c1ccccc1)c1ccc(S(=O)(=O)Nc2ccccc2)cc1NC(=O)Nc1cccc(C(F)(F)F)c1 [Compound 341, 4-(methyl(phenyl)amino)-N-phenyl-3-(3-(3-(trifluoromethyl)phenyl)ureido)benzenesulfonamide]
IC50 (IDH2 R140Q): 1000 to 10000 nM

O=C(Nc1cccc(C(F)(F)F)c1)Nc1cc(S(=O)(=O)Nc2ccccc2)ccc1-n1ccnc1 [Compound 342, 4-(1H-imidazol-1-yl)-N-phenyl-3-(3-(3-(trifluoromethyl)phenyl)ureido)benzenesulfonamide]
IC50 (IDH2 R140Q): 100 to 1000 nM

Cc1nccn1-c1ccc(S(=O)(=O)Nc2ccccc2)cc1NC(=O)Nc1cccc(C(F)(F)F)c1 [Compound 343]
IC50 (IDH2 R140Q): 1000 to 10000 nM

O=C(Nc1cccc(C(F)(F)F)c1)Nc1cc(S(=O)(=O)Nc2ccccc2)ccc1-n1cccn1 [Compound 344]
IC50 (IDH2 R140Q): 1000 to 10000 nM

O=C(Nc1cccc(C(F)(F)F)c1)Nc1cc(S(=O)(=O)NC2CC2)ccc1-n1ccnc1 [Compound 345, N-cyclopropyl-4-(1H-imidazol-1-yl)-3-(3-(3-(trifluoromethyl)phenyl)ureido)benzenesulfonamide]
IC50 (IDH2 R140Q): 100 to 1000 nM

O=C(Nc1cccc(C(F)(F)F)c1)Nc1cc(S(=O)(=O)N2CCOCC2)ccc1-n1ccnc1 [Compound 346]
IC50 (IDH2 R140Q): 1000 to 10000 nM

CC(C)N(C)c1ccc(S(=O)(=O)Nc2ccccc2)cc1NC(=O)Nc1cccc(C(F)(F)F)c1 [Compound 347]
IC50 (IDH2 R140Q): 1000 to 10000 nM

O=C(Nc1cccc(C(F)(F)F)c1)Nc1cc(S(=O)(=O)NC2CC2)ccc1N1CCOCC1 [Compound 348, N-cyclopropyl-4-morpholino-3-(3-(3-(trifluoromethyl)phenyl)ureido)benzenesulfonamide]
IC50 (IDH2 R140Q): 1000 to 10000 nM

O=C(Nc1cccc(C(F)(F)F)c1)Nc1cc(S(=O)(=O)NC2CC2)ccc1N1CCCOCC1 [Compound 349, N-cyclopropyl-4-(1,4-oxazepan-4-yl)-3-(3-(3-(trifluoromethyl)phenyl)ureido)benzenesulfonamide]
IC50 (IDH2 R140Q): 100 to 1000 nM

O=C(Nc1cccc(C(F)(F)F)c1)Nc1cc(S(=O)(=O)N2CCOCC2)ccc1N1CCOCC1 [Compound 350]
IC50 (IDH2 R140Q): 1000 to 10000 nM

Cc1ccc(NC(=O)Nc2c(Cl)cccc2Cl)cc1S(=O)(=O)Nc1ccc(Cl)cc1 [Compound 352]
IC50 (IDH2 R140Q): 100 to 1000 nM

O=C(Nc1cccc(C(F)(F)F)c1)Nc1cc(S(=O)(=O)Nc2ccccc2)ccc1-n1ccnc1 [Compound 354]
IC50 (IDH2 R140Q): 100 to 1000 nM

O=C(Nc1cccc(C(F)(F)F)c1)Nc1cc(S(=O)(=O)NC2CC2)cnc1-n1ccnc1 [Compound 355]
IC50 (IDH2 R140Q): 100 to 1000 nM

O=C(Nc1cccc(C(F)(F)F)c1)Nc1cc(S(=O)(=O)N2CCOCC2)cnc1N1CCOCC1 [Compound 356]
IC50 (IDH2 R140Q): 1000 to 10000 nM

O=C(Nc1cccc(C(F)(F)F)c1)Nc1cc(S(=O)(=O)NC2CC2)cnc1N1CCOCC1 [Compound 357]
IC50 (IDH2 R140Q): 1000 to 10000 nM

O=C(Nc1cccc(C(F)(F)F)c1)Nc1cc(S(=O)(=O)NC2CC2)cnc1N1CCCOCC1 [Compound 358]
IC50 (IDH2 R140Q): 100 to 1000 nM

O=C(Nc1cccc(C(F)(F)F)c1)Nc1cc(S(=O)(=O)Nc2ccccc2)ccc1-c1nccs1 [Compound 359]
IC50 (IDH2 R140Q): 100 to 1000 nM
